The source of these data is patent publication US6673372B1, “Crystalline Efavirenz” (Bristol-Myers Squibb Pharma Company, priority 1998, dated 2004).

The data set in a line: Relative stability of the crystalline forms of Efavirenz. Type of data set: physicochemical. Here is the method:
Five Forms designated as Form 1, Form 2, Form 3, form 4, Form 5 have been identified. Each Form is distinguishable from the other forms by x-ray powder diffraction (XRD) and differential scanning calorimetry (DSC). Each form can be isolated in substantially pure form under the conditions described. Further, the forms may be interconverted by procedures taught herein.
It has a melting point of about 138° C. to about 140° C., which is the highest of the four forms. Due to its increased stability, it is commonly used for drug formulation. All other forms may be converted into Form 1 during drying at about 60° C. to about 110° C. Conversion and drying is preferably done in a dryer oven at about 70° C. to about 110° C. under reduced pressure. More preferred is about 75° C. to about 85° C. Form 5 is converted to Form 1 by heating to 95° C under reduced pressure. Forms 2 and 3 may also be converted into Form 1 using a hydrocarbon slurry at about 65° C. to about 75° C. Heptane is the most preferred hydrocarbon for this conversion. Form 4, however, may not convert to Form 1 under these conditions because it is soluble at about 70° C. Form 1 may be directly crystallized from heptane when the saturated solution is seeded at about 60° C. to about 75° C. and held at about this temperature until Form 1 starts crystallizing.
The thermal properties of Efavirenz were characterized with differential scanning calorimetry using a TA Instruments DSC 910, with data analysis via a TA Instruments Thermal Analyzer 2100. Samples were placed in sealed aluminum pans for analysis with an empty aluminum pan serving as the reference. Heating rates of 5° C. per minute or 10° C. per minute were employed over a temperature range of 25° C. to 200° C. The instrument was calibrated with a indium standard.

Turning to `O=C1Nc2ccc(Cl)cc2[C@@](C#CC2CC2)(C(F)(F)F)O1` [Form 1, (S)-6-chloro-4-cyclopropylethynyl-4-trifluoromethyl-1,4-dihydro-2H-3,1-benzoxazin-2-one], the “thermodynamic stability among the crystalline forms” value (solid forms compared, highest melting point) is “most thermodynamically stable form”.

`O=C1Nc2ccc(Cl)cc2[C@@](C#CC2CC2)(C(F)(F)F)O1` [Form 2, (S)-6-chloro-4-cyclopropylethynyl-4-trifluoromethyl-1,4-dihydro-2H-3,1-benzoxazin-2-one]: the stability result (inferred from the melting point observed by differential scanning calorimetry) is on record as “exceptional stability”.

As to `O=C1Nc2ccc(Cl)cc2[C@@](C#CC2CC2)(C(F)(F)F)O1` [Form 3, (S)-6-chloro-4-cyclopropylethynyl-4-trifluoromethyl-1,4-dihydro-2H-3,1-benzoxazin-2-one], the “stability of the form in solution slurries” value (solution slurries of Efavirenz at room temperature) is on record as “most stable form”.

Take `O=C1Nc2ccc(Cl)cc2[C@@](C#CC2CC2)(C(F)(F)F)O1` [Form 5, (S)-6-chloro-4-cyclopropylethynyl-4-trifluoromethyl-1,4-dihydro-2H-3,1-benzoxazin-2-one]: the “thermodynamic stability among the crystalline forms” value (below 40° C.) was “most thermodynamically stable crystalline form”.
